Results on one molecule are retold here after US5439933A (priority 1993, dated 1995).

pIC50: −log10 of the molar value. Values after ≈ are worked out from the molar mass of the structure shown.

Holding throughout (type): cell-based
The subject of experiment [1] is LoVo human adenocarcinoma cells. As to the kind of experiment: Cell proliferation assay (cell counts), LoVo. The settings on record: 72 h. Here is the method:
(§1) Tolytoxin and the other new scytophycin compounds are potent anticancer and antifungal agents. The cytotoxicity of tolytoxin and other new scytophycin compounds was determined using a cell proliferation assay, which tested the effect of the compounds on increases in cell numbers.
(§2) Cell lines were grown in plastic dishes (Falcon) in Eagle's basal medium supplemented with 5% newborn calf serum (KB), Fisher's medium supplemented with 10% horse serum (L1210), Dulbecco's modified Eagle's medium supplemented with 5% heat-inactivated fetal calf serum (LoVo), minimal essential medium supplemented with 2% heat-inactivated chicken serum (HEp-2), RPMI-1640 supplemented with 10% heat-inactivated fetal calf serum (T-47D, COLO-201) or 20% heat-inactivated fetal calf serum (HL-60, KATO-III), or McCoy's 5A supplemented with 10% heat-inactivated fetal calf serum (HBL-100). All cell culture media were supplemented with 50 μg/ml gentamycin sulfate. The cultures were incubated at 37° C. in a humidified atmosphere containing 5% carbon dioxide.
(§3) Cultures were exposed to graded concentrations of tolytoxin and reincubated for 72 hours in the presence of tolytoxin. Three dishes were used for each treatment. Cell numbers were determined by hemacytometer counts. The IC50 for each cell line was determined by plotting the logarithm of the tolytoxin concentration versus growth (cell number as a percentage of the control) of the treated cells.
(§4) The other new scytophycin compounds are also potent cytotoxins. For example, the IC50 of the scytophycins against KB human epidermoid carcinoma, LoVo human adenocarcinoma, and L1210 murine leukemia were determined using the cell proliferation assay described for tolytoxin.

Experiment [2] concerns Murine leukemia (L1210) cells. Put plainly: Polynucleation / DNA content by flow cytometry. The settings on record: 10 nM. Here is the method:
The following procedure employs new scytophycins to produce polynucleated mammalian cells. Murine leukemia (L1210) cells at a density of 1×10^5 cells/mL were treated with tolytoxin for periods ranging from 4 to 24 hours. Tolytoxin or the appropriate vehicle as a control was added in a volume of not more than 4.2 μL per 10 mL of cell suspension. The cell suspension was incubated at 37° C. in a humidified atmosphere of 95% air, 5% carbon dioxide. At the conclusion of the incubation, the cultures were chilled on ice and centrifuged at 200×g (gravity) for 10 minutes. The pelleted cells were fixed in 70% ethanol: 30% water for 1 hour. Aliquots of the fixed cell suspensions were washed twice with 0.01M phosphate buffered saline, pH 7.2-7.4. The cells were resuspended at approximately 1×10^6 /mL in modified Krishan's reagent (Krishan, 1975) containing 0.005% propidium iodide, ribonuclease A at 50 units/mL, 0.1% sodium citrate, and 0.3% Nonidet P-40. Following a 30 minute incubation at 4° C. the cell suspensions were passed 4 times through a 26-gauge needle before analysis on a Coulter Epics C flow cytometer, equipped with an Innova 90 argon laser tuned at 488 nm and set at 200 milliwatts. The fluorescence of 10,000 cells was used to generate the DNA histograms.
A general note: In flow cytometry, cells or beads pass a laser one at a time.

The test system of experiment [3] is HBL-100 human breast cells. Put plainly: Cell proliferation assay (cell counts), HBL-100. To be noted: Table 5, 72 hours. Here is the method:
as §1, §2
Cultures were exposed to graded concentrations of tolytoxin and reincubated for 72 hours in the presence of tolytoxin. […] Cell numbers were determined by hemacytometer counts. The IC50 for each cell line was determined by plotting the logarithm of the tolytoxin concentration versus growth (cell number as a percentage of the control) of the treated cells.

Experiment [4] relates to Phytophthora nicotianae H729. Put plainly: Antifungal agar dilution. The settings on record: Phytophthora nicotianae, 48 h. The protocol: (§5) The new scytophycins are also useful as antifungal agents. Antimicrobial activity was determined by the agar dilution method. Tolytoxin was dissolved in 95% ethanol for addition to cooled, molten agar. Nystatin was solubilized in DMSO and diluted in distilled water. Appropriate solvent controls were also prepared. Fungal cultures were grown on Saboraud dextrose agar. Assay plates were incubated for 48 hours post-inoculation. Yeasts and filamentous fungi were incubated at 25° C.
(§6) Activity was determined using the method described above for tolytoxin.
For orientation: In agar dilution, organisms are placed on agar that contains the substance at set levels.

The subject of a further experiment is Saccharomyces cerevisae. Put plainly: Antifungal agar dilution. The settings on record: Saccharomyces, 48 h. The protocol: as §5, §6
Experiment [5] deals with Thielaviopsis paradoxa 1215. Put plainly: Antifungal agar dilution. The settings on record: Thielaviopsis paradoxa, 1215, 48 h. Here is the method:
as §5, §6

Another experiment relates to Sclerotium rofsii 2133. As to the kind of experiment: Antifungal agar dilution. To be noted: 48 h. The protocol:
as §5, §6

The subject of a further experiment is Candida albicans A26. Put plainly: Antifungal agar dilution. The settings on record: Candida albicans, A26, 48 h. The protocol: as §5, §6
The subject of experiment [6] is KB human epidermoid carcinoma cells. As to the kind of experiment: Cell proliferation assay (cell counts), KB. To be noted: 72 h. Here is the method: as §1, §2, §3, §4

As to `COC1CC2C=CCC(CC(OC)C3(CO3)C(OC)CC(OC)C(C)C(C(C)C(O)C(C)CCC(=O)C(C)C(OC)C(C)/C=C/N(C)C=O)OC(=O)/C=C/C(C)=C/C1O)O2` (centres unmarked) [Tolytoxin, 6-hydroxy-7-O-methylscytophycin B], the pIC50 in [1] was 8.08; in [3], 8.62; in [6], 8.28. Moreover, the “multinucleated cells observed by microscopy” value in experiment [2] (4 to 24 hours) is “increasing numbers of multinucleated cells”. Moreover, the “proportion of cells in the G2 M phase” value in [2] (4 to 24 hours) is “gradual increase”. The “fraction of the cells with DNA contents greater than 4C” value in experiment [2] (by 16 hours) was “approximately 1/3”. The minimal inhibitory concentration (MIC) in [4] amounted to 4 nM (≈ 3.4 ng/mL); against Saccharomyces cerevisae, 4 nM (≈ 3.4 ng/mL); in [5], 1 nM (≈ 0.85 ng/mL); in the experiment with Sclerotium rofsii 2133, 1 nM (≈ 0.85 ng/mL); with Candida albicans A26, 8 nM (≈ 6.8 ng/mL).

The term pIC50 denotes the negative decadic logarithm of the IC50, by convention in mol/L. Higher therefore signals a low IC50. The term MIC denotes the lowest concentration found to suppress growth. A low value points to a more susceptible organism.
